Source: ChEMBL document CHEMBL6182944, “Substrate Specificity of the Organic Cation Transporters MATE1 and MATE2K and Functional Overlap with OCT1 and OCT2” (J Med Chem, 2025)

Legend:
[1] = biological target: T1, MATE1 (Homo sapiens, UniProt Q96FL8); experiment: in vitro
T1 sequence (Q96FL8 whole entry): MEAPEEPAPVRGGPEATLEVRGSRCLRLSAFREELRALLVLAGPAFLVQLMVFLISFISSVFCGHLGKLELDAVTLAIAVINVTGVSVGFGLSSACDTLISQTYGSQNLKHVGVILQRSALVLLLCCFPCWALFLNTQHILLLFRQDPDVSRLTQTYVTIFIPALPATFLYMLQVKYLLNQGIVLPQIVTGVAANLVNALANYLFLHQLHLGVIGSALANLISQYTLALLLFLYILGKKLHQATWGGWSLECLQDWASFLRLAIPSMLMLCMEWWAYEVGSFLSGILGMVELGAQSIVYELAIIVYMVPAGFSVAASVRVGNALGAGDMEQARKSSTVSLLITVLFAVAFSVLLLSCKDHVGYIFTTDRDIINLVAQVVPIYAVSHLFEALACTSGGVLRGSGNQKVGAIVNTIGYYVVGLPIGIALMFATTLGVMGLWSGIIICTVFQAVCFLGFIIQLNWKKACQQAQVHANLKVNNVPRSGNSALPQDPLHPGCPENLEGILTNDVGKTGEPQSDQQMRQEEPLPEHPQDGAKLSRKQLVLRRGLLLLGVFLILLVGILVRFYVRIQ

[2] = biological target: T2, MATE2-K (Homo sapiens, UniProt Q86VL8); experiment: in vitro
T2 sequence (Q86VL8 whole entry): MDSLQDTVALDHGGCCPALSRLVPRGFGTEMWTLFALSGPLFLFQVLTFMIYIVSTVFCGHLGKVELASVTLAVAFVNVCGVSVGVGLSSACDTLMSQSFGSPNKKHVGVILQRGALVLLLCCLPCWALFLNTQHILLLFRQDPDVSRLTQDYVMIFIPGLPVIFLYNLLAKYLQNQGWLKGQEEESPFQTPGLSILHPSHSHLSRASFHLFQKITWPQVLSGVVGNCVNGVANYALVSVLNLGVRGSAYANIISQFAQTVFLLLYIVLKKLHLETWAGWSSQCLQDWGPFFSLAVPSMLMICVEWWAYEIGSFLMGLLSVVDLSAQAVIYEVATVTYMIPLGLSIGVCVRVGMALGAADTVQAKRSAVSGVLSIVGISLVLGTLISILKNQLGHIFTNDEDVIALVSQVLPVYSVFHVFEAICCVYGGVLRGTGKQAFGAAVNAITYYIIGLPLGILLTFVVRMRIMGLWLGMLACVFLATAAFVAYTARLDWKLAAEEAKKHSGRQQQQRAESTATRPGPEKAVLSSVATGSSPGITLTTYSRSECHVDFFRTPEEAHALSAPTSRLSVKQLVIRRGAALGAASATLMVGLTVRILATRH

[3] = HEK293 cells expressing MATE2-K

| Compound | uptake ratio at 1 min, 2.5 µM ([1]; HEK293 cells expressing MATE1) | uptake ratio at 1 min, 2.5 µM [2, 3] | uptake ratio at 1 min, 2.5 µM ([1]; hek293) | uptake ratio at 1 min, 2.5 µM ([2]; hek293) |
| --- | --- | --- | --- | --- |
| NCCCCCN | < 2 | < 2 |  |  |
| NCCc1cccc(O)c1 | > 2 | < 2 |  |  |
| CC[C@@]1(O)C(=O)OCc2c1cc1n(c2=O)Cc2cc3c(CN(C)C)c(O)ccc3nc2-1 [TOPOTECAN] | > 2 | > 2 |  |  |
| O=C(NCCNCC(O)COc1ccc(O)cc1)N1CCOCC1 (stereo not given) [XAMOTEROL] | > 2 | > 2 |  |  |
| CN(C)C(=N)NCCC[C@H](N)C(=O)O | < 2 | < 2 |  |  |
| NCCCNCCCCNCCCN [SPERMINE] |  |  | < 2 | < 2 |
| C[C@@H]1Cc2c(Cl)cc(C(=O)N[C@@H](Cc3ccccc3)C(=O)O)c(O)c2C(=O)O1 [3R14S-OCHRATOXIN A] | > 2 | < 2 |  |  |
| CC[N+](C)(CC)CCOC(=O)C(O)(c1ccccc1)C1CCCCC1 (stereo not given) [OXYPHENONIUM] | > 2 | > 2 |  |  |
| CC(=O)Nc1ccc(OCC(O)CNC(C)C)cc1 (stereo not given) [PRACTOLOL] |  |  | > 2 | > 2 |
| Cc1cc(O)cc(C)c1OCC(C)N (stereo not given) | < 2 | < 2 |  |  |
| Cc1ncc(C[n+]2cccc(CCO)c2C)c(N)n1 | > 2 | > 2 |  |  |
| COc1ccc(CCN)cc1O | > 2 | < 2 |  |  |
| CNCCc1ccc(O)c(O)c1 [DEOXIEPINEPHRINE] | > 2 | > 2 |  |  |
| O=C(O[C@H]1C[C@H]2CC[C@@H](C1)[N+]21CCCC1)C(O)(c1ccccc1)c1ccccc1 [TROSPIUM] | > 2 | < 2 |  |  |
| NCCCC(=O)O [GAMMA-AMINOBUTYRIC ACID] | < 2 | < 2 |  |  |
| COc1cccc2c1C(=O)c1c(O)c3c(c(O)c1C2=O)C[C@@](O)(C(C)=O)C[C@@H]3O[C@H]1C[C@H](N)[C@H](O)[C@H](C)O1 [DAUNORUBICIN] | < 2 | < 2 |  |  |
| CCCCCCCN(CC)CCCC(O)c1ccc(NS(C)(=O)=O)cc1 (stereo not given) [IBUTILIDE] | < 2 | < 2 |  |  |
| CC(C)NCC(O)c1ccc(O)c(O)c1 (stereo not given) [ISOPROTERENOL] | > 2 | > 2 |  |  |
| CC(C)(C)NCC(O)c1ccc(O)c(O)c1 (stereo not given) [COLTEROL] | > 2 | > 2 |  |  |
| O=S(=O)(c1cccc2cnccc12)N1CCCNCC1 [FASUDIL] | < 2 | > 2 |  |  |
| O=C1CCc2ccc(OCCCCN3CCN(c4cccc(Cl)c4Cl)CC3)cc2N1 [ARIPIPRAZOLE] |  |  | < 2 | < 2 |
| CCC(NC(C)C)C(O)c1ccc(O)c(O)c1 (stereo not given) [ISOETHARINE] | > 2 | > 2 |  |  |
| NCCCCNCCCN [SPERMIDINE] | < 2 | < 2 |  |  |
| N=C(N)NCCC[C@H](NC(=O)c1ccc2ccccc2c1O)C(=O)N1CCC[C@H]1C(N)=O | > 2 | < 2 |  |  |
| C=CCN1CCCC1CNC(=O)c1cc2[nH]nnc2cc1OC (stereo not given) [ALIZAPRIDE] | > 2 | > 2 |  |  |
| CCCC(=O)Nc1ccc(OCC(O)CNC(C)C)c(C(C)=O)c1 (stereo not given) [ACEBUTOLOL] |  |  | > 2 | > 2 |
| CCN(CC)CCNC(=O)c1ccc(NS(C)(=O)=O)cc1 [SEMATILIDE] | > 2 | > 2 |  |  |

| Compound | uptake ratio at 1 min, 2.5 µM ([1]; HEK293 cells expressing MATE1) | uptake ratio at 1 min, 2.5 µM [2, 3] | uptake ratio at 1 min, 2.5 µM ([1]; hek293) | uptake ratio at 1 min, 2.5 µM ([2]; hek293) |
| --- | --- | --- | --- | --- |
| CN/C(=N/CCSCc1nc[nH]c1C)NC#N [CIMETIDINE] |  |  | > 2 | > 2 |
| CN1CCN(CC(=O)N2c3ccccc3C(=O)Nc3cccnc32)CC1 [PIRENZEPINE] | > 2 | < 2 |  |  |
| CNCCc1ccccn1 [BETAHISTINE] |  |  | < 2 | < 2 |
| CN1CCC[C@@H]1Cc1c[nH]c2ccc(CCS(=O)(=O)c3ccccc3)cc12 | < 2 | < 2 |  |  |
| CN(C)CCCN1c2ccccc2Sc2ccc(Cl)cc21 [CHLORPROMAZINE] |  |  | < 2 | < 2 |
| NCCc1c[nH]cn1 [HISTAMINE] |  |  | > 2 | < 2 |
| Oc1ccc(CC2NCCc3cc(O)c(O)cc32)cc1 (stereo not given) [HIGENAMINE] | > 2 | > 2 |  |  |
| CC(C)(C)NCC(O)COc1cccc2c1CC(O)C(O)C2 (stereo not given) [NADOLOL] | > 2 | > 2 |  |  |
| CN(CC(=O)O)C(=N)N [CREATINE] | < 2 | < 2 |  |  |
| NCC(O)c1cccc(O)c1 (stereo not given) [NORFENEFRINE] | > 2 | < 2 |  |  |
| OC(CNCC(O)C1CCc2cc(F)ccc2O1)C1CCc2cc(F)ccc2O1 (stereo not given) [NEBIVOLOL] | < 2 | < 2 |  |  |
| COc1cc(CCN)ccc1O | > 2 | < 2 |  |  |
| N[C@@H](CC(=O)N1CCn2c(nnc2C(F)(F)F)C1)Cc1cc(F)c(F)cc1F [SITAGLIPTIN] | > 2 | > 2 |  |  |
| C[N+](C)(C)C[C@H](O)CC(=O)[O-] [LEVOCARNITINE] | < 2 | < 2 |  |  |
| O=C1CC2(CCCC2)CC(=O)N1CCCCN1CCN(c2ncccn2)CC1 [BUSPIRONE] |  |  | > 2 | < 2 |
| OC(c1ccccc1)(c1ccccc1)C12CC[N+](CCOCc3ccccc3)(CC1)CC2 | > 2 | < 2 |  |  |
| O=C(C[S+]([O-])Cc1ccco1)NC/C=C\COc1cc(CN2CCCCC2)ccn1 (stereo not given) [LAFUTIDINE] | < 2 | < 2 |  |  |
| CC[N+](C)(C)c1cccc(O)c1 [EDROPHONIUM] | > 2 | > 2 |  |  |
| C=CCN1CCCC1CNC(=O)c1cc(S(N)(=O)=O)cc(OC)c1OC (stereo not given) [VERALIPRIDE] | > 2 | > 2 |  |  |
| CN(C)CCc1c[nH]c2ccc(CS(=O)(=O)N3CCCC3)cc12 [ALMOTRIPTAN] | > 2 | > 2 |  |  |
| N=C(N)NC(=N)Nc1ccc(Cl)cc1 [4-CHLOROPHENYLBIGUANIDE] | > 2 | > 2 |  |  |
| COc1cc(C(O)CN)ccc1O (stereo not given) [NORMETANEPHRINE] | < 2 | < 2 |  |  |
| CC[C@@H](C(N)=O)N1CCCC1=O | < 2 | < 2 |  |  |
| COC(=O)CCc1ccc(OCC(O)CNC(C)C)cc1 (stereo not given) [ESMOLOL] | < 2 | < 2 |  |  |
| CC(C)(C(=O)O)c1ccc(C(O)CCCN2CCC(C(O)(c3ccccc3)c3ccccc3)CC2)cc1 (stereo not given) [FEXOFENADINE] | < 2 | < 2 |  |  |
| NC(N)=Nc1nc(CSCCC(N)=NS(N)(=O)=O)cs1 [FAMOTIDINE] |  |  |  | > 2 |
